Patent publication US7668586B2, “In vivo multiphoton diagnostic detection and imaging of a neurodegenerative disease” (Cornell Research Foundation, Inc., priority 2000, dated 2010)

What was measured:
pial arteriole = experiment: Pial vessel reactivity, closed cranial window, vessel diameter measurement; conditions: 14-month-old Tg+ (four out of five, outlier excluded); ACh 10 and 25 μM, SNP 0.5 μM superfused
Text: Anesthesia was induced with 2.5% halothane and maintained in 1.0% halothane in 67% N2O and 33% O2. Mice were intubated transorally, placed in a stereotaxic frame and ventilated artificially (SAR-830/P, CWE, Ardmore, Pa.). End-tidal CO2 was continuously monitored by a microcapnometer (Columbus Instruments, Columbus, Ohio). The femoral artery and vein were cannulated with a polyethylene catheter (PE-10, Intramedic, Becton Dickinson) for continuous arterial blood pressure and heart rate monitoring and for drug infusion. Alpha-chloralose (80 mg/kg i.v.) was injected and halothane was withdrawn gradually for deepening of anesthesia. […] Arterial blood gas and pH were analyzed before drug superfusion. […]
Pial vessels were visualized with a video microscope system comprised of an intravital microscope (Leitz, Germany), CCD video camera (model 1300, Cohu Inc, San Diego, U.S.A.), a camera controller (C2400, Hamamatsu Photonics, Hamamatsu, Japan), video monitor (Sony, Japan), and a video recorder (Panasonic, Japan). The images were continuously recorded on videotape. The diameter of a single pial arteriole (20-30 μm) was measured per experiment by a video width analyzer (C3161, Hamamatsu Photonics) and recorded using the MacLab data acquisition and analysis system. […]

[1] = Fluorescent angiography after tail vein injection; conditions: injected into tail vein, at least 20 minutes prior to imaging
Experimental: The tail of the animal was warmed on a heating pad to dilate the blood vessels, and approximately 0.05 ml fluorescein (25 mg/ml) in sterile PBS was injected into a tail vein of the mouse at least 20 minutes prior to imaging.

amyloid plaques = amyloid plaques (Homo sapiens, UniProt P05067); experiment: In vivo multiphoton imaging of thioflavine S-positive amyloid; set-up: species or system Tg2576 mouse; conditions: dilute solution applied to brain, 750 nm 2-photon excitation
Chain of amyloid plaques (P05067 672-711 limits assumed): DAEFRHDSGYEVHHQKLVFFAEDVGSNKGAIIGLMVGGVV

Compound: CC(=O)OCC[N+](C)(C)C [ACh, Acetylcholine]
- vessel dilation relative to control (non-transgenic) animals (pial arteriole): about 25%

Compound: O=C1OC2(c3ccc(O)cc3Oc3cc(O)ccc32)c2ccccc21 [fluorescein]
- crossing of the blood-brain barrier [1]: did not cross the blood-brain barrier

Compound: Thioflavine S
- depth to the surface of the cortex at which plaques were visualized (amyloid plaques): up to 150 μm
